According to patent publication US20100152188A1, “Novel Heterocyclic Compounds” (priority 2005, published 2010):

Tests used:
HDAC = HDAC inhibition; type: biochemical; conditions: for HDAC Inhibition 1 μM: compound at 1 μM; for HDAC Inhibition 10 μM: compound at 10 μM
NCIH460 = test: Anti-cancer screen (MTT), NCIH460; type: cell-based; conditions: Homo sapiens, NCI-H460, 48 hours with compound, tested at 0.01-100 µM
In short: (§1)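 MTT read-out at 570 nm after 48 h compound exposure (five concentrations, 0.01–100 µM, triplicate). Percent growth calculated against untreated control and a T0 plate read at time of compound addition, giving GI50, TGI and LC50.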

HCT116 = test: Anti-cancer screen (MTT), HCT116; type: cell-based; conditions: Homo sapiens, HCT-116, 48 hours with compound, tested at 0.01-100 µM
In short: as §1

MDAMB-231/U 251 = test: Anti-cancer screen (MTT), MDAMB-231/U 251; type: cell-based; conditions: for CC50: 48 h, read-out: MDAMB-231/U 251 LC50; for GI50 / IC (TGI): 48 hours with compound, MTT, tested at 0.01-100 µM
In short: as §1

[1] = test system: NCIH460, HCT116, MDAMB-231/U 251; test: Anti-cancer screen, mean GI50 over the cell lines; type: cell-based; conditions: in µM
In short: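 Growth was scored by MTT absorbance at 570 nm relative to control wells and a pre-treatment T0 reading. Compounds were tested at five final concentrations (0.01–100 µM, triplicate) for 48 h on NCIH460, HCT116 and U251 cells, each plated at 5000 cells/well 24 h before dosing.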

| melting point [°C] | SMILES | HDAC Inhibition 1 μM (HDAC) | HDAC Inhibition 10 μM (HDAC) | GI50 (NCIH460) [µM] | IC (TGI) (NCIH460) [µM] | LC50 (NCIH460) [µM] | GI50 (HCT116) [µM] | IC (TGI) (HCT116) [µM] | LC50 (concentration giving 50% net cell kill relative to T0) (HCT116) [µM] | CC50 (MDAMB-231/U 251) [µM] | GI50 (MDAMB-231/U 251) [µM] | IC (TGI) (MDAMB-231/U 251) [µM] | Mean GI50 [1] |
| --- | --- | --- | --- | --- | --- | --- | --- | --- | --- | --- | --- | --- | --- |
| 90.6 to 91.5 | O=C(NCc1ccc(C(=O)N2CCC[C@H]2C(=O)NO)cc1)OCc1cccs1 [Example 99, 2-Thienylmethyl[4-({(2S)-2-[(hydroxyamino)carbonyl]pyrrolidin-1-yl}carbonyl)benzyl]carbamate] | – | – | – | – | – | – | – | – | – | – | – | – |
| 129.3 to 130.3 | O=C(NCc1ccc(C(=O)N2CCN(c3ccccn3)CC2)cc1)OCc1cccs1 [Example 71, 2-Thienylmethyl{4-[(4-pyridin-2-ylpiperazin-1-yl)carbonyl]benzyl}carbamate] | 9.14 | 7.67 | – | – | – | – | – | – | – | – | – | – |
| 143.6 to 144.6 | O=C(NCc1ccc(C(=O)N2CCN(c3ncccn3)CC2)cc1)OCc1cccs1 [Example 72, 2-Thienylmethyl{4-[(4-pyrimidin-2-ylpiperazin-1-yl)carbonyl]benzyl}carbamate] | 8.08 | 8.40 | – | – | – | – | – | – | – | – | – | – |

The next lines start with the compound.

| SMILES | melting point [°C] | HDAC Inhibition 1 μM (HDAC) | HDAC Inhibition 10 μM (HDAC) | GI50 (NCIH460) [µM] | IC (TGI) (NCIH460) [µM] | LC50 (NCIH460) [µM] | GI50 (HCT116) [µM] | IC (TGI) (HCT116) [µM] | LC50 (concentration giving 50% net cell kill relative to T0) (HCT116) [µM] | CC50 (MDAMB-231/U 251) [µM] | GI50 (MDAMB-231/U 251) [µM] | IC (TGI) (MDAMB-231/U 251) [µM] | Mean GI50 [1] |
| --- | --- | --- | --- | --- | --- | --- | --- | --- | --- | --- | --- | --- | --- |
| O=C(NCc1ccc(C(=O)N[C@@H](Cc2ccc(O)cc2)C(=O)NO)cc1)OCc1cccs1 [Example 100, 2-Thienylmethyl[4-({[2-(hydroxyamino)-1-(4-hydroxybenzyl)-2-oxoethyl]amino}carbonyl)benzyl]carbamate] | 162.6 to 163.4 | 13.63 | 40.64 | – | – | – | – | – | – | – | – | – | – |
| O=C(Cc1csc(NC(=O)OCc2cccnc2)n1)NO [Example 1, pyridin-3-ylmethyl{4-[2-(hydroxyamino)-2-oxoethyl]-1,3-thiazol-2-yl}carbamate] | – | 1.3 | 31.5 | 0.01 | 0.5 | > 100 | 0.25 | 4 | > 100 | > 100 | 1 | > 100 | 0.4 |
| Nc1cccc(NC(=O)c2ccc(CNC(=O)OCc3cccs3)cc2)c1 [Example 55, 2-Thienylmethyl(4-{[(3-aminophenyl)amino]carbonyl}benzyl)carbamate] | – | 7.41 | 26 | 4 | 40 | > 100 | 18 | > 100 | > 100 | 45 | 0.07 | 0.6 | 7 |
